This is an account of results in publication PMC6151762, “Halogenated 1-Hydroxynaphthalene-2-Carboxanilides Affecting Photosynthetic Electron Transport in Photosystem II” (Molecules : A Journal of Synthetic Chemistry and Natural …, 2017).

Molecules are shown by their SMILES. “And” between values parts separate entries of the source, which are not always exact repeats. Equal values may be shown once. Read-outs that look alike come from different tables or passages of the source.

In data set [1] the test system is photosynthetic electron transport (PET) in spinach chloroplasts. The data set is described as follows: Inhibition of photosynthetic electron transport (PET) in spinach chloroplasts (DCPIP photoreduction). In kind it is biochemical, Spinacia oleracea L. Particulars: chlorophyll 30 mg/L. The method, then: Chloroplasts were prepared from spinach (Spinacia oleracea L.) according to Masarovicova and Kralova. The inhibition of photosynthetic electron transport (PET) in spinach chloroplasts was determined spectrophotometrically (Genesys 6, Thermo Scientific, USA), using an artificial electron acceptor 2,6-dichlorophenol-indophenol (DCIPP) according to Kralova et al., and the rate of photosynthetic electron transport was monitored as photoreduction of DCPIP. The measurements were carried out in phosphate buffer (0.02 M, pH 7.2) containing sucrose (0.4 M), MgCl2 (0.005 M) and NaCl (0.015 M). The chlorophyll content was 30 mg/L in these experiments, and the samples were irradiated (~100 W/m^2 with 10 cm distance) with a halogen lamp (250 W) using a 4-cm water filter to prevent warming of the samples (suspension temperature 22 °C). The studied compounds were dissolved in DMSO due to their limited water solubility. […] The inhibitory efficiency of the studied compounds was expressed by IC50 values, i.e., by molar concentration of the compounds causing a 50% decrease in the […] relative to the untreated control.

Data set [2] shares this test system. Details: method as in Gonec et al. [11]. Particulars: compounds 1-7 published earlier, ref Gonec et al. [11], read-out: PET Inhibition IC50; cited from earlier work.
The nature of data set [3]: Aqueous solubility (qualitative). The following applies: compared with 2,5-, 2,6-, 3,4- and 3,5-disubstituted derivatives. In kind it is physicochemical.
Data set [4] relates to chlorophyll a (Chla) in pigment-protein complexes in PS II. The data set is described as follows: Fluorescence of chlorophyll a in spinach chloroplasts. Particulars: with increasing concentration (c = 0, 56, 220, 431 μM); λex = 436 nm; chlorophyll 10 mg/L. In kind it is biochemical, Spinacia oleracea L. The method, then:
(§1) The fluorescence emission spectra of chlorophyll a (Chla) and aromatic amino acids in spinach chloroplasts were recorded on fluorescence spectrophotometer F-2000 (Hitachi, Tokyo, Japan) using excitation wavelength λex = 436 nm for monitoring the fluorescence of Chla and λex = 275 nm for monitoring the fluorescence of aromatic amino acids, excitation slit 20 nm and emission slit 10 nm. The samples were kept in the dark for 2 min prior to the measurement. The phosphate buffer used for dilution of the chloroplast suspension was the same as described above. Due to low aqueous solubility, the compounds were added to a chloroplast suspension in DMSO solution. The DMSO concentration in all samples was the same as in the control (10%). The chlorophyll concentration in chloroplast suspension was 10 mg/L.

In data set [5] the test system is aromatic amino acids (AAA) in photosynthetic proteins situated mainly in PS II. Briefly: Fluorescence of aromatic amino acids in spinach chloroplasts. In kind it is biochemical, Spinacia oleracea L. The following applies: with increasing concentration (c = 0-47.2 μM); λex = 275 nm; chlorophyll 10 mg/L. The method, then:
as §1

In general, IC50 refers to the concentration at which inhibition is half-maximal. In the case of `CN(C)C(=O)Nc1ccc(Cl)c(Cl)c1` [DCMU, 3-(3,4-dichlorophenyl)-1,1-dimethylurea, reference compound], the IC50 in data set [1] is ~1.9 µM and 1.9 µM.

Take `O=C(Nc1cccc(Cl)c1)c1ccc2ccccc2c1O` [Compound 3]: in data set [2], the IC50 is 7.9 µM.

In data set [1], `O=C(Nc1cc(Cl)ccc1Cl)c1ccc2ccccc2c1O` [Compound 10, N-(2,5-Dichlorophenyl)-1-hydroxynaphthalene-2-carboxamide] displayed a half-maximal inhibitory concentration (IC50) of 59.6 µM.

For the compound `O=C(Nc1c(Cl)cc(Cl)cc1Cl)c1ccc2ccccc2c1O` [Compound 15, 1-Hydroxy-N-(2,4,6-trichlorophenyl)naphthalene-2-carboxamide], the IC50 in data set [1] was found to be 10.6 µM.

As a reminder, the melting point is the temperature, or range, at which the solid turns liquid. Consider `O=C(Nc1ccc(Br)cc1Cl)c1ccc2ccccc2c1O` [Compound 22, N-(4-Bromo-2-chlorophenyl)-1-hydroxynaphthalene-2-carboxamide], for which the melting point was in the range of 186 to 187 °C. The compound also returned an IC50 in data set [1] of 171 µM. Further, the aqueous solubility result in data set [3] is reported as “limited aqueous solubility”.

Regarding `O=C(Nc1ccccc1Cl)c1ccc2ccccc2c1O` [Compound 2], the half-maximal inhibitory concentration (IC50) in data set [2] is 29.4 µM.

`O=C(Nc1c(Br)cccc1Br)c1ccc2ccccc2c1O` [Compound 19, N-(2,6-Dibromophenyl)-1-hydroxynaphthalene-2-carboxamide] returned a melting point of 212 to 216 °C. This compound also displayed an IC50 in data set [1] of 78 µM.

On to `O=C(Nc1ccc(Cl)cc1Cl)c1ccc2ccccc2c1O` [Compound 9, N-(2,4-Dichlorophenyl)-1-hydroxynaphthalene-2-carboxamide], for which half-maximal inhibition in data set [1] (IC50) was put at 531 µM. Moreover, the aqueous solubility result in data set [3] is on record as “limited aqueous solubility”.

In the case of `O=C(Nc1cc(Cl)c(Cl)cc1Cl)c1ccc2ccccc2c1O` [Compound 14, 1-Hydroxy-N-(2,4,5-trichlorophenyl)naphthalene-2-carboxamide], in data set [1], the IC50 stood at 153 µM.

`O=C(Nc1ccc(Br)c(Cl)c1)c1ccc2ccccc2c1O` [Compound 24, N-(4-Bromo-3-chlorophenyl)-1-hydroxynaphthalene-2-carboxamide] returned a melting point of 203 to 205 °C. In addition, in data set [1], the IC50 worked out at 6.7 µM.

Consider `O=C(Nc1ccccc1)c1ccc2ccccc2c1O` [Compound 1], for which, in data set [2], the IC50 was 31.3 µM.

`O=C(Nc1ccc(Br)cc1)c1ccc2ccccc2c1O` [Compound 7]: the IC50 in data set [2] is 9.6 µM.

Turning to `O=C(Nc1ccccc1Br)c1ccc2ccccc2c1O` [Compound 5], the IC50 in data set [2] is 61.9 µM.

Turning to `O=C(Nc1ccc(Cl)c(Cl)c1)c1ccc2ccccc2c1O` [Compound 12, N-(3,4-Dichlorophenyl)-1-hydroxynaphthalene-2-carboxamide], the IC50 in data set [1] was determined as 13.3 µM.

With `O=C(Nc1ccc(Cl)cc1Br)c1ccc2ccccc2c1O` [Compound 21, N-(2-Bromo-4-chlorophenyl)-1-hydroxynaphthalene-2-carboxamide], the melting point lay within 182 to 184 °C. Further, it took 278 µM to reach half-maximal inhibition in data set [1] (IC50). Moreover, the aqueous solubility result in data set [3] is “limited aqueous solubility”.

In turn, `O=C(Nc1ccc(Br)cc1Br)c1ccc2ccccc2c1O` [Compound 17, N-(2,4-Dibromophenyl)-1-hydroxynaphthalene-2-carboxamide] yielded a melting point of 185 to 188 °C. In addition, the half-maximal inhibitory concentration (IC50) in data set [1] was found to be 505 µM. Besides, in data set [3], the aqueous solubility entry is on record as “limited aqueous solubility”.

Take `O=C(Nc1cc(Br)ccc1Br)c1ccc2ccccc2c1O` [Compound 18, N-(2,5-Dibromophenyl)-1-hydroxynaphthalene-2-carboxamide]: the melting point lay in the range of 198 to 200 °C. The same compound yielded an IC50 in data set [1] of 7.6 µM.

In turn, `O=C(Nc1cc(Cl)c(Cl)c(Cl)c1)c1ccc2ccccc2c1O` [Compound 16, 1-Hydroxy-N-(3,4,5-trichlorophenyl)naphthalene-2-carboxamide] gave an IC50 in data set [1] of 8 µM.

Turning to `O=C(Nc1ccc(Cl)cc1)c1ccc2ccccc2c1O` [Compound 4], the 50% inhibitory concentration (IC50) in data set [2] was 10.8 µM.

`O=C(Nc1cc(Cl)cc(Cl)c1)c1ccc2ccccc2c1O` [Compound 13, N-(3,5-Dichlorophenyl)-1-hydroxynaphthalene-2-carboxamide] yielded an IC50 in data set [1] of 5.2 µM.

The compound `O=C(Nc1cc(Br)ccc1Cl)c1ccc2ccccc2c1O` [Compound 23, N-(5-Bromo-2-chlorophenyl)-1-hydroxynaphthalene-2-carboxamide] showed a melting point of 178 to 180 °C. Also, in data set [4], the “intensity of Chla fluorescence emission band at 686 nm” value is “gradual decrease”. Further, the IC50 in data set [1] came to 60.3 µM. In addition, in data set [5], the “AAA fluorescence at 334 nm” value is recorded as “quenching of AAA fluorescence at 334 nm was observed”.

`O=C(Nc1cccc(Cl)c1Cl)c1ccc2ccccc2c1O` [Compound 8, N-(2,3-Dichlorophenyl)-1-hydroxynaphthalene-2-carboxamide] displayed an IC50 in data set [1] of 235 µM. Further, in data set [3], the aqueous solubility result is reported as “limited aqueous solubility”.

For the compound `O=C(Nc1cccc(Br)c1)c1ccc2ccccc2c1O` [Compound 6], in data set [2], the IC50 was 8.2 µM.

Take `O=C(Nc1c(Br)cc(Br)cc1Br)c1ccc2ccccc2c1O` [Compound 20, 1-Hydroxy-N-(2,4,6-tribromophenyl)naphthalene-2-carboxamide]: the melting point lay in the range of 115 to 118 °C. The same compound gave an IC50 in data set [1] of 45 µM.

Compound `O=C(Nc1c(Cl)cccc1Cl)c1ccc2ccccc2c1O` [Compound 11, N-(2,6-Dichlorophenyl)-1-hydroxynaphthalene-2-carboxamide] displayed a half-inhibitory concentration (IC50) in data set [1] of 100 µM.
